# In patent publication US7523563B2, “Process for preparing certain hydrohalide metal complex compounds having a specific coarse structure” (Verla-Pharm Arzneimittelfabrik Apotheker H.J.v. Ehrlich …, priority 2005, dated 2009):
# Values joined by “and” are separate entries in the source; they are usually repeats but may differ in a detail not shown here. Identical values can stand only once.
# Tests used:
# [1] = Water uptake capacity or hygroscopicity, desiccator at 75% relative humidity; type: physicochemical; conditions: for percentage increase in weight: hydrochloride
# Text: The hygroscopicity of granular magnesium L-aspartate hydrochloride prepared by the process according to the invention was compared with a finely powdered magnesium L-aspartate hydrochloride prepared by a standard process (disclosed in DE 32 38 118 A1). The test arrangement consisted of a desiccator which was adjusted to a relative humidity of 75% with a saturated sodium chloride solution. In each case a defined amount of sample was weighed out and the sample dish was placed in the desiccator. The percentage increase in weight of the weighed amount was determined after 2, 4, 5 and 20 hours.
# [2] = Dissolving properties, time until dissolution complete in water; type: physicochemical; conditions: 10 g in 250 ml of water, stirring 20 revolutions per min; hydrochloride
# Protocol: The dissolving properties of granular magnesium L-aspartate hydrochloride prepared by the process according to the invention were compared with a finely powdered magnesium L-aspartate hydrochloride prepared by a standard process (disclosed in DE 32 38 118 A1). The test arrangement consisted of a glass beaker with stirring bar which was adjusted to 20 revolutions per min. 250 ml of water were introduced and then 10 g of test material were added with the stirrer motor running. The time until dissolution was complete was measured.
# [3] = Particle size distribution, comparative sieve analysis (Hosokawa Alpine air jet sieve); type: physicochemical
# Text: The particle size distribution of granular magnesium L-aspartate hydrochloride prepared by the process according to the invention was compared with a finely powdered magnesium L-aspartate hydrochloride prepared by a standard process (disclosed in DE 32 38 118 A1).
# [4] = Flow time and flowability, conical flow funnel, 2.9.16 Method Ph. Eur.; type: physicochemical; conditions: 100 g, time for whole sample to flow out of the funnel, two samples each; hydrochloride
# Protocol: The flowability of granular magnesium L-aspartate hydrochloride prepared by the process according to the invention was compared with a finely powdered magnesium L-aspartate hydrochloride prepared by a standard process (disclosed in DE 32 38 118 A1). The test arrangement consisted of a conical flow funnel with a height of 22.5 cm, an upper internal diameter of 7.3 cm and a lower internal diameter of 8.2 mm. The test was carried out by the 2.9.16 Method, Ph. Eur., 4th edition, main volume 2002, as follows. 100 g portions of material were put into the funnel. Opening of the funnel orifice was followed by assessment of the flowability, and the time for the whole sample to flow out of the funnel was determined. Two samples were measured in each case.
# [5] = background statement; cited from earlier work
# [6] = Apparent volume of the final product; type: physicochemical
# Protocol: A product with a very favourable apparent volume can be achieved in the process according to the invention for preparing the granular hydrohalide of the complex compound of relevance here. The apparent volume [volume of the uncompressed product (ml)/100 g of the product] is preferably in a range from 150 to 180 ml/100 g, with a particularly preferred apparent volume being about 170 ml/100 g.
# [7] = Particle size distribution of the final product of Example 1; type: physicochemical
# [8] = listed as finely powdered magnesium L-aspartate hydrochloride, hydrochloride
# [9] = sieve 63.0 μm, listed as standard process, hydrochloride
# [10] = sieve 90.0 μm, listed as standard process, hydrochloride
# [11] = sieve 150.0 μm, listed as standard process, hydrochloride
# [12] = listed as granular magnesium L-aspartate hydrochloride, hydrochloride
# [13] = sieve 63.0 μm, listed as process according to the present invention, hydrochloride
# [14] = sieve 90.0 μm, listed as process according to the present invention, hydrochloride
# [15] = sieve 150.0 μm, listed as process according to the present invention, hydrochloride
compound,measurement,setting,value
"Cl.N[C@@H](CC(=O)[O-])C(=O)[O-].[Mg+2] [Standard, magnesium L-aspartate hydrochloride, reference compound]",percentage increase in weight,[1]; testing time 2 h,0.35% and 0.30%
same,percentage increase in weight,[1]; testing time 4 h,0.63% and 0.55%
same,percentage increase in weight,[1]; testing time 5 h,0.72% and 0.71%
same,percentage increase in weight,[1]; testing time 20 h,3.06% and 2.70%
same,Dissolving time,[2],7 min
same,average particle size (d50),[3]; [8],54.9 μm
same,maximum particle size (dmax),[3]; [8],260.0 μm
same,minimum particle size (dmin),[3]; [8],0.7 μm
same,1 − Q,[3]; sieve 0 μm (receiver),100.0 %-R
same,Q,[3]; sieve 0 μm (receiver),0.0 %-D
same,q,"[3]; sieve 0 μm (receiver), listed as standard process, hydrochloride",55.4 %-B
same,1 − Q,[3]; [9],44.6 %-R
same,Q,[3]; [9],55.4 %-D
same,q,[3]; [9],23.8 %-B
same,1 − Q,[3]; [10],20.8 %-R
same,Q,[3]; [10],79.2 %-D
same,q,[3]; [10],15.6 %-B
same,1 − Q,[3]; [11],5.2 %-R
same,Q,[3]; [11],94.8 %-D
same,q,[3]; [11],5.2 %-B
"Cl.N[C@@H](CC(=O)[O-])C(=O)[O-].[Mg+2] [According to the invention, magnesium L-aspartate hydrochloride]",hygroscopicity compared with a finely powdered product according to the prior art,[1]; 2 to 20 hours,distinctly reduced
same,percentage increase in weight,[1]; testing time 2 h,0.18% and 0.16%
same,percentage increase in weight,[1]; testing time 4 h,0.33% and 0.30%
same,percentage increase in weight,[1]; testing time 5 h,0.43% and 0.40%
same,percentage increase in weight,[1]; testing time 20 h,1.74% and 1.63%
same,Flow time,[4],10 s
same,Dissolving time,[2],3 min and 2 min
same,average particle size (d50),[3]; [12],250.8 μm
same,maximum particle size (dmax),[3]; [12],448.7 μm
same,minimum particle size (dmin),[3]; [12],48.0 μm
same,1 − Q,[3]; sieve 0 μm (receiver),100.0 %-R
same,Q,[3]; sieve 0 μm (receiver),0.0 %-D
same,q,"[3]; sieve 0 μm (receiver), listed as process according to the present invention, hydrochloride",0.2 %-B
same,1 − Q,[3]; [13],99.8 %-R
same,Q,[3]; [13],0.2 %-D
same,q,[3]; [13],0.6 %-B
same,1 − Q,[3]; [14],99.2 %-R
same,Q,[3]; [14],0.8 %-D
same,q,[3]; [14],10.2 %-B
same,1 − Q,[3]; [15],89.0 %-R
same,Q,[3]; [15],11.0 %-D
same,q,[3]; [15],61.4 %-B
same,1 − Q,[3]; sieve 212.0 μm,27.6 %-R
same,Q,[3]; sieve 212.0 μm,72.4 %-D
same,q,[3]; sieve 212.0 μm,18.4 %-B
same,1 − Q,[3]; sieve 315.0 μm,9.2 %-R
same,Q,[3]; sieve 315.0 μm,90.8 %-D
same,q,[3]; sieve 315.0 μm,5.4 %-B
same,1 − Q,[3]; sieve 400.0 μm,3.8 %-R
same,Q,[3]; sieve 400.0 μm,96.2 %-D
same,q,[3]; sieve 400.0 μm,3.0 %-B
same,1 − Q,[3]; sieve 500.0 μm,0.8 %-R
same,Q,[3]; sieve 500.0 μm,99.2 %-D
same,q,[3]; sieve 500.0 μm,0.8 %-B
Cl.N[C@@H](CC(=O)[O-])C(=O)[O-].[Mg+2] [Magnesium L-aspartate hydrochloride],humidity at which the substance liquefies,[5],more than 50%
"Cl.N[C@@H](CC(=O)[O-])C(=O)[O-].[Mg+2] [Example 1, magnesium L-aspartate hydrochloride]",apparent volume [volume of the uncompressed product (ml)/100 g of the product],[6],170 ml/100 g
same,"particle size distribution, fraction of particles",[7]; 100-140 μm,19.48%
same,"particle size distribution, fraction of particles",[7]; 140-250 μm,57.84%
same,"particle size distribution, fraction of particles",[7]; 250-315 μm,10.81%
same,"particle size distribution, fraction of particles",[7]; 315-400 μm,4.78%
same,"particle size distribution, fraction of particles",[7]; 400-500 μm,0.90%
same,"particle size distribution, fraction of particles",[7]; <100 μm,6.19%
